# Assay results: patent publication US12029751B2, “Therapeutic agent for nervous system disease” (OSAKA UNIVERSITY, priority 2017, dated 2024)
# Experiments:
# [1] = tested on: cerebral cortical neurons; test: LDH assay, necrosis inhibiting effect under oxygen-glucose deprivation (OGD) stress; format: cell-based, rat; details: 10 μM methylcobalamin 30 minutes before OGD stress (3 hours), measured after 24 hours
# Text: Cerebral cortical neurons were collected and cultured by a conventional method. Cerebral cortex was dissected from a fetus of a Sprague-Dawley (SD) rat (18th day of pregnancy) and recovered in ice-cooled Dulbecco's Modified Eagle Medium (DMEM) containing 10% fetal bovine serum (FBS) and 1% penicillin/streptomycin. The pia mater and blood vessels were removed, and the remaining cerebral cortex was transferred to DMEM (containing 1% penicillin/streptomycin and no FBS) and cut into small pieces having a size of 1 mm by surgical scissors. Papain (final concentration, 2 mg/ml) was added to the cell mixture, and the mixture was allowed to react at 37° C. for 30 minutes. DNase I (70 U/ml) was added to the reaction mixture and reaction was carried out for 30 seconds. Then, DMEM containing 10% FBS and 1% penicillin/streptomycin was added to terminate the reaction. […]
# To the cerebral cortical neurons (Example 1-1) cultured on a PLL-coated 6-well chamber slide, 10 μM methylcobalamin was added at 30 minutes before exposure to oxygen-glucose deprivation (OGD) stress. […] After 24 hours, the supernatant was collected, and LDH activity was measured using Cytotoxicity Detection Kit^PLUS (SIGMA). LDH activities of the control group and the methylcobalamin addition group were calculated as proportions (%) with respect to the LDH activity of the high control.
# [2] = tested on: tMCAO model C57BL/6J mice; test: Brain ischemic lesion volume by TTC staining in transient middle cerebral artery occlusion (tMCAO) model; format: in vivo, mouse; details: 2 days after tMCAO surgery
# Text: Eight- to 9-week-old male C57BL/6J mice (about 24 g) were used. A probe for a laser Doppler blood flow meter was placed on the right skull such that blood flow in the middle cerebral artery could be monitored. The right cervical region was cut and opened, and the external carotid artery was ligated. Then, the common carotid artery was cut, and a nylon thread was inserted into the common carotid artery, and the tip was advanced while the blood flow was checked using a blood flow monitor. When the tip reached the bifurcation of the middle cerebral artery and a decrease in blood flow was observed, this state was held for 1 hour at a rectal temperature of 37° C. Then, the nylon thread was removed, and the common carotid artery was ligated. In order to administer methylcobalamin continuously, an osmotic minipump was placed and left in the dorsal subcutaneous space. […]
# At 2 days after the surgery, the mouse (Example 4-1) was sacrificed, and the cerebrum was excised. […] Images were obtained by a stereoscopic microscope, the ischemic lesion area in each slice was calculated, and all ischemic lesion areas of the cerebrum slices were summed up to calculate an ischemic lesion volume. The ischemic lesion area in each slice was calculated by the following formula: Area of unaffected hemisphere—area of affected side intact portion.
# [3] = tested on: Mouse macrophage cell line J774A.1; test: Immunohistological evaluation of iNOS-positive (M1) and Arg1-positive (M2) macrophages; format: cell-based; details: for percentage of M2 macrophages (percentage of Arg1-positive cells): 72 hours; for percentage of M1 macrophages (percentage of iNOS-positive cells): 24 hours
# Protocol: Mouse macrophage cell line J774A.1 (JCRB9108) was purchased from JCRB Cell Bank (Laboratory of Cell Cultures), Osaka, Japan. Cells were cultured in DMEM containing 10% FBS and 1% penicillin/streptomycin.
# The J774A.1 cells (Example 5-1) were seeded on a dish having a diameter of 6 cm. After 4 days, cells were fixed with 4% PFA for 20 minutes. Blocking was performed for 30 minutes, and the cells were allowed to react with primary antibodies at 4° C. overnight. The cells were further allowed to react with a secondary antibody at room temperature for 1 hour so that the nuclei were labeled with DAPI. To detect the M1 marker iNOS, LPS (100 ng/ml) and methylcobalamin were added at 24 hours before fixing the cells. To detect the M2 marker Arg1, IL-4 (20 ng/ml) and methylcobalamin were added at 72 hours before fixing the cells.
# The primary antibodies used were a rabbit anti-iNOS monoclonal antibody (Abeam) and a rabbit anti-Arg1 polyclonal antibody (Santa Cruz). The secondary antibody used was an Alexa 488-labeled goat anti-rabbit IgG antibody (Life Technologies) or an Alexa 568-labeled goat anti-rabbit IgG antibody (Life Technologies).
compound,measurement,setting,value
"C/C1=C2/[N-][C@H]([C@H](CC(N)=O)[C@@]2(C)CCC(=O)NC[C@@H](C)OP(=O)([O-])O[C@H]2[C@@H](O)[C@@H](n3cnc4cc(C)c(C)cc43)O[C@@H]2CO)[C@]2(C)N=C(/C(C)=C3N=C(/C=C4N=C1[C@@H](CCC(N)=O)C\4(C)C)[C@@H](CCC(N)=O)[C@]\3(C)CC(N)=O)[C@@H](CCC(N)=O)[C@]2(C)CC(N)=O.[CH3-].[Co+3] [MeCbl, methylcobalamin]",LDH activity as proportion with respect to the high control,[1],1.3%
same,LDH activity as proportion with respect to the high control,[1]; listed as methylcobalamin,significantly decreased
same,ischemic lesion volume,"[2]; 1 mg/kg/day continuous, osmotic minipump",28.8
same,reduction of ischemic lesion volume as compared with the control group,[2]; 1 mg/kg/day,about ½
same,percentage of M2 macrophages (percentage of Arg1-positive cells),[3]; IL-4 20 ng/ml + MeCbl 1 nM,10.90%
same,percentage of M2 macrophages (percentage of Arg1-positive cells),[3]; IL-4 20 ng/ml + MeCbl 10 nM,18.57%
same,percentage of M2 macrophages (percentage of Arg1-positive cells),[3]; IL-4 20 ng/ml + MeCbl 100 nM,18.95%
same,percentage of M2 macrophages (percentage of Arg1-positive cells),[3]; IL-4 20 ng/ml + MeCbl 1 μM,19.32%
same,percentage of M2 macrophages (percentage of Arg1-positive cells),[3]; IL-4 20 ng/ml + MeCbl 10 μM,15.24%
same,percentage of M2 macrophages (percentage of Arg1-positive cells),[3]; IL-4 20 ng/ml + MeCbl 100 μM,10.61%
same,percentage of M2 macrophages (percentage of Arg1-positive cells),[3]; IL-4 20 ng/ml + MeCbl 1 mM,9.49%
same,proportion of cells positive for the M2 marker Arg1 as compared to IL-4 alone,[3]; IL-4 + 10 nM to 1 μM methylcobalamin,significantly increased
same,percentage of M1 macrophages (percentage of iNOS-positive cells),[3]; LPS 100 ng/ml + MeCbl 1 nM,16.64%
same,percentage of M1 macrophages (percentage of iNOS-positive cells),[3]; LPS 100 ng/ml + MeCbl 10 nM,9.57%
same,percentage of M1 macrophages (percentage of iNOS-positive cells),[3]; LPS 100 ng/ml + MeCbl 100 nM,7.26%
same,percentage of M1 macrophages (percentage of iNOS-positive cells),[3]; LPS 100 ng/ml + MeCbl 1 μM,3.42%
same,percentage of M1 macrophages (percentage of iNOS-positive cells),[3]; LPS 100 ng/ml + MeCbl 10 μM,11.45%
same,percentage of M1 macrophages (percentage of iNOS-positive cells),[3]; LPS 100 ng/ml + MeCbl 100 μM,10.34%
same,percentage of M1 macrophages (percentage of iNOS-positive cells),[3]; LPS 100 ng/ml + MeCbl 1 mM,17.57%
same,proportion of cells positive for the M1 marker iNOS as compared with LPS alone,[3]; LPS + 10 nM to 100 μM methylcobalamin,significantly decreased
same,methylcobalamin concentration at peak of switch from M1 to M2,[3]; immunofluorescent staining,around 100 nM
